Assay results published in patent US6337411B2, “Stromelysin inhibitors” (Aventis Pharma Deutschland GmbH, priority 1999, dated 2002).

What was measured:
[1] = biological target: T1, catalytic domain of human stromelysin (MMP-3) (Homo sapiens, UniProt P08254); assay: Enzymatic activity of the catalytic domain of human stromelysin (fluorogenic substrate); format: biochemical; settings: inhibitor concentration giving 50% inhibition of the enzyme; pH 6.5 buffer; 15 minutes preincubation; fluorescence 328 nm (ex)/393 nm (em)
T1 construct: enzymatic activity of the catalytic domain of human stromelysin; made in house
T1 sequence (P08254 100-272 limits assumed): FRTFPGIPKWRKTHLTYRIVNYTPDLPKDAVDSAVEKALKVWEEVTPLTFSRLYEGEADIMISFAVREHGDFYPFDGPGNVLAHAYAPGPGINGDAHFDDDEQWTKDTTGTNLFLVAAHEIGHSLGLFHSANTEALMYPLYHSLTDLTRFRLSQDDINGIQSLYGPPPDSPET
Procedure: Preparation and determination of the enzymatic activity of the catalytic domain of human stromelysin
The enzyme stromelysin (MMP-3) was prepared according to Ye et al. (Biochemistry; 31 (1992) pages 11231-11235). For the measurement of the enzyme activity or of the enzyme inhibitor action, 70 μl of buffer solution and 10 μl of enzyme solution were incubated for 15 minutes with 10 μl of a 10% strength (v/v) aqueous dimethyl sulfoxide solution, which optionally contained the enzyme inhibitor. After addition of 10 μl of a 10% strength (v/v) aqueous dimethyl sulfoxide solution which contained I mmol/l of the substrate, the enzyme reaction was monitored by fluorescence spectroscopy (328 nm (ex)/393 nm (em)). The enzyme activity is shown as the extinction increase/minute. The IC50 value was determined as that inhibitor concentration which in each case led to a 50% inhibition of the enzyme.
The buffer solution contained 0.05% Brij (Sigma, Deisenhofen, Germany) and 0.1 mol/l of tris/HCl, 0.1 mol/l of NaCl, 0.01 mol/l of CaCl2 and 0.1 mol/l of piperazine-N,N′-bis[2-ethanesulfonic acid] (pH=6.5).
The enzyme solution contained 5 μg/ml of an enzyme domain prepared according to Ye et al. The substrate solution contained 1 mmol/l of the fluorogenic substrate (7-methoxycoumarin-4-yl)acetyl-Pro-Leu-Gly-Leu-3-(2′,4′-dinitrophenyl)-L-2,3-diaminopropionyl-Ala-Arg-NH2 (Bachem, Heidelberg, Germany).

[2] = Solubility of isolated stromemycin (properties); format: physicochemical; settings: solvents methanol, DMSO
Description: (§1) The stromemycin obtained has the following properties: […]

[3] = Stability of isolated stromemycin in solution (properties); format: physicochemical; settings: neutral medium vs strongly acidic and alkaline solution
Description: as §1

SMILES: CCCC=CC=CCCc1cc(OC(=O)c2c(CCC=CC=CCCC)cc(O)c(C3OC(CO)C(O)C(O)C3O)c2O)cc(O)c1C(=O)O (stereo not drawn) [stromemycin]
- IC50 [1]: 115 µM
- Solubility [2]: soluble in methanol, dimethyl sulfoxide (DMSO)
- Stability [3]: stable in neutral medium, but unstable in strongly acidic and alkaline solution
